How the values were obtained:
[1] = target: Multidrug resistance-associated protein 1 (Homo sapiens, UniProt P33527); assay: TP_TRANSPORTER: inhibition of Calcein efflux (Calcein: 0.5 micro;M, Glibenclamide: 50-100 uM, increase intercellular calcein level by ca 4 fold ) in GLC4/Sb30 cells; assay type: functional, cell-based
[2] = target: ATP-binding cassette sub-family C member 2 (Rattus norvegicus, UniProt Q63120); assay: TP_TRANSPORTER: inhibition of Carboxy-2',7'-dichlorofluorescein efflux (Calcein: 0.5 micro;M, Glibenclamide, 50-100 uM, increase intercellular CF level by ~2 fold) in isolated rat hepatocytes; assay type: functional, cell-based, Hepatocyte
ATP-binding cassette sub-family C member 2, sequence (Q63120 whole entry): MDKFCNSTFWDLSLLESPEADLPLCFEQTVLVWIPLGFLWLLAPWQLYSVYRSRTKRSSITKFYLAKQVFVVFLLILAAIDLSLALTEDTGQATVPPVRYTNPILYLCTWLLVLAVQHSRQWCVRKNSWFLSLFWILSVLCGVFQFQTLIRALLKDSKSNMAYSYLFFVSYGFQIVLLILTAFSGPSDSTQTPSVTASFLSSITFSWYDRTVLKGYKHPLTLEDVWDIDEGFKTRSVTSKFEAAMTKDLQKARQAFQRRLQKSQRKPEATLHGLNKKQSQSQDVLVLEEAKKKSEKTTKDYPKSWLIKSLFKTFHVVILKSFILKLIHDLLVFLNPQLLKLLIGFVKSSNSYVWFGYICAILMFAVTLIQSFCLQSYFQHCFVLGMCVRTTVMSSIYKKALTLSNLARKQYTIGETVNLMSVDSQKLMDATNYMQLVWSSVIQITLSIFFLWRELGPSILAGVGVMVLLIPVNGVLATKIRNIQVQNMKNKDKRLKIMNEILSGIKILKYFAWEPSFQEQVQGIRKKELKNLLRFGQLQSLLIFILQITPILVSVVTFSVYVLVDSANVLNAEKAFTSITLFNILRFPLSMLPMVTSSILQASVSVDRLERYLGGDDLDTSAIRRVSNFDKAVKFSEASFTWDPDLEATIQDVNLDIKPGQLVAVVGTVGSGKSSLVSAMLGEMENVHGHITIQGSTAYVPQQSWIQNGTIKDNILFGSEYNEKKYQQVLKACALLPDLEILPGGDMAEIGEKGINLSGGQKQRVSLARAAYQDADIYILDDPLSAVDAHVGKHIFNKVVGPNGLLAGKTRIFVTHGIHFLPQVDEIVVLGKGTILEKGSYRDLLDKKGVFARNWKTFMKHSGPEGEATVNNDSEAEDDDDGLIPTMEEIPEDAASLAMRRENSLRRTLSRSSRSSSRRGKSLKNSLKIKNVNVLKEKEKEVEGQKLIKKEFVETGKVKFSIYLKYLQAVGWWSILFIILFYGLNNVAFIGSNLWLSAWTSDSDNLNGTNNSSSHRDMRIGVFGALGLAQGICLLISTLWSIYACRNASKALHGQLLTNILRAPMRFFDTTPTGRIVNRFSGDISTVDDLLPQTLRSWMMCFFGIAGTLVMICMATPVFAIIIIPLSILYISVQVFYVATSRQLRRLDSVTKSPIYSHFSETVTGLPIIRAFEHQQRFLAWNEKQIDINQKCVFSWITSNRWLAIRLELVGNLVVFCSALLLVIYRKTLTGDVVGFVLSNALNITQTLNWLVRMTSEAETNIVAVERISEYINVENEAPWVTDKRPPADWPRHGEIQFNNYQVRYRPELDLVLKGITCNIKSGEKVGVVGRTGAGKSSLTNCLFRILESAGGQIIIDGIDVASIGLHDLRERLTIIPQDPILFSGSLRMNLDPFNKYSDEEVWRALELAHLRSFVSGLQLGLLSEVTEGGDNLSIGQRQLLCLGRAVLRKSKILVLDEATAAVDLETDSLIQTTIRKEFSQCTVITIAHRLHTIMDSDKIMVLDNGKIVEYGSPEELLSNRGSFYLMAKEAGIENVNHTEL

Multidrug resistance-associated protein 1, sequence (P33527 whole entry): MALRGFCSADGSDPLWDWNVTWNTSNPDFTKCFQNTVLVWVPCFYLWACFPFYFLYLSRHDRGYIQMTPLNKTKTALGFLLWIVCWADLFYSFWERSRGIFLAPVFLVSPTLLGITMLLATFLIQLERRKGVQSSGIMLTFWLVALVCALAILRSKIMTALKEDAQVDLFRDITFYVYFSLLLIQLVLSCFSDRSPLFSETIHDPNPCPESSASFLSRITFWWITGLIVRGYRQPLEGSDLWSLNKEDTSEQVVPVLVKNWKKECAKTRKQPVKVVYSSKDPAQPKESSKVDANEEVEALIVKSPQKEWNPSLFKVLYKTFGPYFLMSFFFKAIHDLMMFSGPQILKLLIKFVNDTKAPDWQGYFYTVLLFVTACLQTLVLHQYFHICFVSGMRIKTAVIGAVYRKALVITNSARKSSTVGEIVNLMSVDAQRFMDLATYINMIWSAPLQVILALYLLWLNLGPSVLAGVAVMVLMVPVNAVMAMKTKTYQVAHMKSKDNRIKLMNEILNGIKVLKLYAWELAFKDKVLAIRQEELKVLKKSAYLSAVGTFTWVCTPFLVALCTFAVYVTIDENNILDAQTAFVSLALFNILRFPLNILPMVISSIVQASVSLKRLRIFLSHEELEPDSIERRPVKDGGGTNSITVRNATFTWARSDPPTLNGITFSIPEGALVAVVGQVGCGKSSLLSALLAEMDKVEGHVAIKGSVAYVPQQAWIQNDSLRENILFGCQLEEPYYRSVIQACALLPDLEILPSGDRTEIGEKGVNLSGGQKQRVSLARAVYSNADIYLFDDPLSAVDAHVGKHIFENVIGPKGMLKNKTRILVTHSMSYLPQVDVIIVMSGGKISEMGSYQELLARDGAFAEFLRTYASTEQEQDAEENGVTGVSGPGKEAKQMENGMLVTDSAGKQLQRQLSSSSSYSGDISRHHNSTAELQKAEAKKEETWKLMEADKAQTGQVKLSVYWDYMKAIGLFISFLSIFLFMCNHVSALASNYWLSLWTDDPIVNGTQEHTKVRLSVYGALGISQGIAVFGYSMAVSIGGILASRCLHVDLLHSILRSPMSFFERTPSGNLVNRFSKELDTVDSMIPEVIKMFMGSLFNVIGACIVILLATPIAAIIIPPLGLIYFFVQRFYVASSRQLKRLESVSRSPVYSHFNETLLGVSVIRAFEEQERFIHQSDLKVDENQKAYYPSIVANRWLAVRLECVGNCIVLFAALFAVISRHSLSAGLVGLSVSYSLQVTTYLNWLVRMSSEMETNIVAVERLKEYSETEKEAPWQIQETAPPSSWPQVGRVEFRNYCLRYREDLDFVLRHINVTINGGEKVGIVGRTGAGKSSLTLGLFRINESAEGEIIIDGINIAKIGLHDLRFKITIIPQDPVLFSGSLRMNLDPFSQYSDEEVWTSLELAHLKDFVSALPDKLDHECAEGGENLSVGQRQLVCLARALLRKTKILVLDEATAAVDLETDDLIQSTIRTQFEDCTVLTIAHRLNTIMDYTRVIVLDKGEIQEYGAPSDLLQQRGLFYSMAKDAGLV

Activity [1]: inhibitor [+] | Activity [2]: inhibitor [+]
Structure (SMILES): COc1ccc(Cl)cc1C(=O)NCCc1ccc(S(=O)(=O)NC(=O)NC2CCCCC2)cc1 [GLYBURIDE]
